In patent publication US20240059671A1, “TYROSINE KINASE 2 (TYK2) DEGRADATION COMPOUNDS AND METHODS OF USE” (CULLGEN (SHANGHAI), INC., priority 2020, published 2024):

Target: TYK2 (Homo sapiens, UniProt P29597)
Assay: TYK2 protein degradation in MOLT-4 cells by immunoblotting
Format: cell-based
Set-up: endogenous in cells; host or cells: MOLT-4
Conditions: MOLT-4 cells, 24 hours
Description: MOLT-4 cells were treated with compounds at 0.5 and 5 μM concentrations for 24 hours.
MOLT-4 cells were treated with CPD-038, CPD-039, and CPD-040 at 0.04, 0.2, 1, and 5 μM concentrations for 24 hours.
MOLT-4 or NOMO-1 cells were cultured at 37° C. with 5% CO2 in RPMI 1640 Medium supplemented with 10% fetal bovine serum. Cells were authenticated using the short tandem repeat (STR) assays. Mycoplasma test results were negative.
Cultured cells were washed with cold PBS once and lysed in cold RIPA buffer supplemented with protease inhibitors and phosphatase inhibitors (Beyotime Biotechnology). The solutions were then incubated at 4° C. for 30 minutes with gentle agitation to fully lyse cells. Cell lysates were centrifuged at 13,000 rpm for 10 minutes at 4° C. and pellets were discarded. Total protein concentrations in the lysates were determined by BCA assays (Beyotime Biotechnology). Cell lysates were mixed with Laemmli loading buffer to 1× and heated at 99° C. for 5 min. Proteins were resolved on SDS-PAGE and visualized by chemiluminescence. Images were taken by a ChemiDoc MP Imaging system (Bio-Rad). Protein bands were quantitated using the accompanied software provided by Bio-Rad.
The percentage of TYK2 protein degradation of each compound at 0.5 and 5 μM determined in MOLT-4 cells as described in Methods.

Sequence of TYK2 (P29597 whole entry): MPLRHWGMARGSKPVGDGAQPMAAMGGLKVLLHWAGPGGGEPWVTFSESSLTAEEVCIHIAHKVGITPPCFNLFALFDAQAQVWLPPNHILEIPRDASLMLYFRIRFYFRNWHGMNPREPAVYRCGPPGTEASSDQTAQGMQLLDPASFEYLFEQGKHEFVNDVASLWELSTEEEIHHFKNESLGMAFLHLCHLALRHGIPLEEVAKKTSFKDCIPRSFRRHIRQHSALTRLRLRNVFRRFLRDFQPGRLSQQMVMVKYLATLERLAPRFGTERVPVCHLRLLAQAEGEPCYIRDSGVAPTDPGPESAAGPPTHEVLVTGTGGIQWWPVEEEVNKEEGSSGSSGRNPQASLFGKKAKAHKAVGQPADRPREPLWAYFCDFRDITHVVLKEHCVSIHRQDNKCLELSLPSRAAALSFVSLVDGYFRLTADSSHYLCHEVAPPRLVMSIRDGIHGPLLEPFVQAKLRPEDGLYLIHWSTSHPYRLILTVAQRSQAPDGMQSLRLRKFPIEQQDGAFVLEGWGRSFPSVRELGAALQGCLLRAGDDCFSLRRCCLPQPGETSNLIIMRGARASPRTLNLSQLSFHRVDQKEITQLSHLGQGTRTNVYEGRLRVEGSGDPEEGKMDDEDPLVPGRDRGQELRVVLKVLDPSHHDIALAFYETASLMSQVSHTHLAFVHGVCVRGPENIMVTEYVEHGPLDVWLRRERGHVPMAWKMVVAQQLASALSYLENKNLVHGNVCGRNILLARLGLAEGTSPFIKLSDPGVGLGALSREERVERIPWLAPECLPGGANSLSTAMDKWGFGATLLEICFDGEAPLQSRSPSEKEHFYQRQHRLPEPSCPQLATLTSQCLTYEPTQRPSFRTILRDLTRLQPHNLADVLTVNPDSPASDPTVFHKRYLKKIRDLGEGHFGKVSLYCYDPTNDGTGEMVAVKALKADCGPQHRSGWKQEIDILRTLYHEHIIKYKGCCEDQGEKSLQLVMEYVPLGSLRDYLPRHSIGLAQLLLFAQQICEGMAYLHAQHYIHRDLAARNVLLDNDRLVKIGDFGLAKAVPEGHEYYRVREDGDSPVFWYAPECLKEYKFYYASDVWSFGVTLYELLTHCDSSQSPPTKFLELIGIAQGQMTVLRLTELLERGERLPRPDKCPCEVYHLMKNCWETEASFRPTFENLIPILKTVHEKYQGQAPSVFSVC

SMILES | TYK2 Degradation (0.5 μM) [%] | TYK2 Degradation (5 μM) [%] | TYK2 Degradation (MOLT-4, 0.5 μM) | TYK2 Degradation (MOLT-4, 5 μM)
CNC(=O)c1nnc(NC(=O)C2CC2)cc1Nc1cccc(-c2ncn(CCNC(=O)CCC(=O)N[C@H](C(=O)N3C[C@H](O)C[C@H]3C(=O)NCc3ccc(-c4scnc4C)cc3)C(C)(C)C)n2)c1OC [CPD-075, N^1-(2-(3-(3-((6-(Cyclopropanecarboxamido)-3-(methylcarbamoyl)pyridazin-4-yl)amino)-2-methoxyphenyl)-1H-1,2,4-triazol-1-yl)ethyl)-N^4-((S)-1-((2S,4R)-4-hydroxy-2-((4-(4-methylthiazol-5-yl)benzyl)carbamoyl)pyrrolidin-1-yl)-3,3-dimethyl-1-oxobutan-2-yl)succinamide] | ≤20 | ≤20 |  | 
CNC(=O)c1nnc(NC(=O)CNC(=O)CCOc2cc(-c3scnc3C)ccc2CNC(=O)[C@@H]2C[C@@H](O)CN2C(=O)[C@@H](NC(=O)C2(F)CC2)C(C)(C)C)cc1Nc1cccc(-c2ncn(C)n2)c1OC [CPD-102, 6-(2-(3-(2-(((2S,4R)-1-((S)-2-(1-Fluorocyclopropane-1-carboxamido)-3,3-dimethylbutanoyl)-4-hydroxypyrrolidine-2-carboxamido)methyl)-5-(4-methylthiazol-5-yl)phenoxy)propanamido)acetamido)-4-((2-methoxy-3-(1-methyl-1H-1,2,4-triazol-3-yl)phenyl)amino)-N-methylpyridazine-3-carboxamide] |  |  | C (C: ≤20% TYK2 degradation) | C (C: ≤20% TYK2 degradation)
CNC(=O)c1nnc(NC(=O)CNC(=O)CCCOc2cc(-c3scnc3C)ccc2CNC(=O)[C@@H]2C[C@@H](O)CN2C(=O)[C@@H](NC(=O)C2(F)CC2)C(C)(C)C)cc1Nc1cccc(-c2ncn(C)n2)c1OC [CPD-103, 6-(2-(4-(2-(((2S,4R)-1-((S)-2-(1-Fluorocyclopropane-1-carboxamido)-3,3-dimethylbutanoyl)-4-hydroxypyrrolidine-2-carboxamido)methyl)-5-(4-methylthiazol-5-yl)phenoxy)butanamido)acetamido)-4-((2-methoxy-3-(1-methyl-1H-1,2,4-triazol-3-yl)phenyl)amino)-N-methylpyridazine-3-carboxamide] |  |  | C (C: ≤20% TYK2 degradation) | C (C: ≤20% TYK2 degradation)
CNC(=O)c1nnc(NC(=O)C2CC2)cc1Nc1cccc(-c2ncn(CCNC(=O)CCCCCCNc3ccc4c(c3)C(=O)N(C3CCC(=O)NC3=O)C4=O)n2)c1OC (centres unmarked) [CPD-017, 6-(Cyclopropanecarboxamido)-4-((3-(1-(2-(7-((2-(2,6-dioxopiperidin-3-yl)-1,3-dioxoisoindolin-5-yl)amino)heptanamido)ethyl)-1H-1,2,4-triazol-3-yl)-2-methoxyphenyl)amino)-N-methylpyridazine-3-carboxamide] | ≤20 |  |  | 
CNC(=O)c1nnc(NC(=O)C2CC2)cc1Nc1cccc(-c2ncn(CCNC(=O)CCOCCOCCNc3ccc4c(c3)C(=O)N(C3CCC(=O)NC3=O)C4=O)n2)c1OC (centres unmarked) [CPD-019, 6-(Cyclopropanecarboxamido)-4-((3-(1-(2-(3-(2-(2-((2-(2,6-dioxopiperidin-3-yl)-1,3-dioxoisoindolin-5-yl)amino)ethoxy)ethoxy)propanamido)ethyl)-1H-1,2,4-triazol-3-yl)-2-methoxyphenyl)amino)-N-methylpyridazine-3-carboxamide] | ≤20 |  |  | 
CNC(=O)c1nnc(NC(=O)CNC(=O)CCOCCOCCOCCC(=O)N[C@H](C(=O)N2C[C@H](O)C[C@H]2C(=O)NCc2ccc(-c3scnc3C)cc2)C(C)(C)C)cc1Nc1cccc(-c2ncn(C)n2)c1OC [CPD-030, 6-((S)-18-((2S,4R)-4-Hydroxy-2-((4-(4-methylthiazol-5-yl)benzyl)carbamoyl)pyrrolidine-1-carbonyl)-19,19-dimethyl-4,16-dioxo-7,10,13-trioxa-3,17-diazaicosanamido)-4-((2-methoxy-3-(1-methyl-1H-1,2,4-triazol-3-yl)phenyl)amino)-N-methylpyridazine-3-carboxamide] | ≤20 | ≤20 |  | 
CNC(=O)c1nnc(NC(=O)CNC(=O)CCOCCOCCNc2cccc3c2C(=O)N(C2CCC(=O)NC2=O)C3=O)cc1Nc1cccc(-c2ncn(C)n2)c1OC (centres unmarked) [CPD-050, 6-(2-(3-(2-(2-((2-(2,6-Dioxopiperidin-3-yl)-1,3-dioxoisoindolin-4-yl)amino)ethoxy)ethoxy)propanamido)acetamido)-4-((2-methoxy-3-(1-methyl-1H-1,2,4-triazol-3-yl)phenyl)amino)-N-methylpyridazine-3-carboxamide] | ≤20 | ≤20 |  | 
CNC(=O)c1nnc(NC(=O)C2CC2)cc1Nc1cccc(-c2ncn(CCNC(=O)CCOCCOCCOCCOCCOCCNc3ccc4c(c3)C(=O)N(C3CCC(=O)NC3=O)C4=O)n2)c1OC (centres unmarked) [CPD-022, 6-(Cyclopropanecarboxamido)-4-((3-(1-(1-((2-(2,6-dioxopiperidin-3-yl)-1,3-dioxoisoindolin-5-yl)amino)-18-oxo-3,6,9,12,15-pentaoxa-19-azahenicosan-21-yl)-1H-1,2,4-triazol-3-yl)-2-methoxyphenyl)amino)-N-methylpyridazine-3-carboxamide] | 40 | ≤20 |  | 
CNC(=O)c1nnc(NC(=O)CNC(=O)CCCCCCCC(=O)N[C@H](C(=O)N2C[C@H](O)C[C@H]2C(=O)N[C@@H](C)c2ccc(-c3scnc3C)cc2)C(C)(C)C)cc1Nc1cccc(-c2ncn(C)n2)c1OC [CPD-084, N1-((S)-1-((2S,4R)-4-hydroxy-2-(((S)-1-(4-(4-methylthiazol-5-yl)phenyl)ethyl)carbamoyl)pyrrolidin-1-yl)-3,3-dimethyl-1-oxobutan-2-yl)-N9-(2-((5-((2-methoxy-3-(1-methyl-1H-1,2,4-triazol-3-yl)phenyl)amino)-6-(methylcarbamoyl)pyridazin-3-yl)amino)-2-oxoethyl)nonanediamide] |  |  | A (A: ≥60% TYK2 degradation) | A (A: ≥60% TYK2 degradation)
CNC(=O)c1nnc(NC(=O)C2CC2)cc1Nc1cccc(-c2ncn(CCNC(=O)COCCOCCOCC(=O)N[C@H](C(=O)N3C[C@H](O)C[C@H]3C(=O)NCc3ccc(-c4scnc4C)cc3)C(C)(C)C)n2)c1OC [CPD-070, 6-(Cyclopropanecarboxamido)-4-((3-(1-((S)-16-((2S,4R)-4-hydroxy-2-((4-(4-methylthiazol-5-yl)benzyl)carbamoyl)pyrrolidine-1-carbonyl)-17,17-dimethyl-4,14-dioxo-6,9,12-trioxa-3,15-diazaoctadecyl)-1H-1,2,4-triazol-3-yl)-2-methoxyphenyl)amino)-N-methylpyridazine-3-carboxamide] | ≤20 | ≤20 |  | 
CNC(=O)c1nnc(NC(=O)CNC(=O)CCCCCOc2cc(-c3scnc3C)ccc2CNC(=O)[C@@H]2C[C@@H](O)CN2C(=O)[C@@H](NC(=O)C2(F)CC2)C(C)(C)C)cc1Nc1cccc(-c2ncn(C)n2)c1OC [CPD-105, 6-(2-(6-(2-(((2S,4R)-1-((S)-2-(1-Fluorocyclopropane-1-carboxamido)-3,3-dimethylbutanoyl)-4-hydroxypyrrolidine-2-carboxamido)methyl)-5-(4-methylthiazol-5-yl)phenoxy)hexanamido)acetamido)-4-((2-methoxy-3-(1-methyl-1H-1,2,4-triazol-3-yl)phenyl)amino)-N-methylpyridazine-3-carboxamide] |  |  | C (C: ≤20% TYK2 degradation) | C (C: ≤20% TYK2 degradation)
CNC(=O)c1nnc(NC(=O)C2CC2)cc1Nc1cccc(-c2ncn(CCNC(=O)CNc3ccc4c(c3)C(=O)N(C3CCC(=O)NC3=O)C4=O)n2)c1OC (centres unmarked) [CPD-013, 6-(Cyclopropanecarboxamido)-4-((3-(1-(2-(2-((2-(2,6-dioxopiperidin-3-yl)-1,3-dioxoisoindolin-5-yl)amino)acetamido)ethyl)-1H-1,2,4-triazol-3-yl)-2-methoxyphenyl)amino)-N-methylpyridazine-3-carboxamide] | ≤20 |  |  | 
CNC(=O)c1nnc(NC(=O)CNC(=O)CCOCCNc2cccc3c2C(=O)N(C2CCC(=O)NC2=O)C3=O)cc1Nc1cccc(-c2ncn(C)n2)c1OC (centres unmarked) [CPD-049, 6-(2-(3-(2-((2-(2,6-Dioxopiperidin-3-yl)-1,3-dioxoisoindolin-4-yl)amino)ethoxy)propanamido)acetamido)-4-((2-methoxy-3-(1-methyl-1H-1,2,4-triazol-3-yl)phenyl)amino)-N-methylpyridazine-3-carboxamide] | ≤20 | ≤20 |  | 
